Experimental data reported in patent publication US5658898A, “Intravenous solutions for a derivative of staurosporine” (CIBA GEIGY Corporation, priority 1994, dated 1997).

Columns and labels:
water solubility = format: physicochemical; conditions: room temperature
[1] = cited from earlier work

SMILES	solubility (water solubility) [µg/mL]	water-solubility (in words) [1]
CO[C@@H]1[C@H](N(C)C(=O)c2ccccc2)C[C@H]2O[C@]1(C)n1c3ccccc3c3c4c(c5c6ccccc6n2c5c31)C(=O)NC4 [N-benzoyl-staurosporin]	< 0.1	–
CN[C@@H]1C[C@H]2O[C@@](C)([C@@H]1OC)n1c3ccccc3c3c4c(c5c6ccccc6n2c5c31)C(=O)NC4 [staurosporin]	–	low water-solubility
